Paper PMC5040747, “Preparation and Evaluation of a Novel Class of Amphiphilic Amines as Antitumor Agents and Nanocarriers for Bioactive Molecules” (Pharmaceutical Research, 2016)
Where two headings read alike, the source gives them in different places.

How the values were obtained:
[1] = tested on: Neuro 2A; assay: In vivo efficacy, metastatic model of murine neuroblastoma; parameters: species or system mouse
Protocol: An efficacy study was performed on an immunocompetent model of neuroblastoma. In this experiment A/J mice were i.v. injected with Neuro 2A (0.2 × 10^6 cells in 100 μL of PBS). After 5 days, the mice were randomized (six animals per group) and treated once with RC16 injected through the tail vein at doses of 20 μg or 40 μg/mouse or vehicle (PBS). After treatment animals were monitored for survival and endpoint criteria.
Endpoint criteria included tumor volume > 2000 mm3, body weight loss ≥ 20%, unusual mouse behavior, lack of movement and poor posture. Tumor size was measured using digital calipers on alternate days and tumor volume was calculated using the following formula: a x b^2 π/6 where a is the longest diameter and b is the shortest diameter. Mice were also weighed and observed 3 times per week for signs of endpoint condition.

[2] = tested on: Ramos; assay: MTT cell proliferation assay, Ramos; format: cell-based; conditions: Homo sapiens, Lymphoma, read-out: Cell killing activity IC50
Protocol: (§1) Cells were plated in 96-well tissue culture plates at a density of 1 × 10^3 cells/well, allowed to attach 24 h, and then left untreated or treated with growth medium containing different concentrations of the tested RCn compounds previously dissolved in PBS. After different time periods the cell vitality was determined by MTT assay according to the manufacture’s instruction (Promega). Results are reported as the micromolar concentration of RCn reducing cell survival to 50% (IC50).

[3] = tested on: MDA-MB-231; assay: MTT cell proliferation assay, MDA-MB-231; format: cell-based; conditions: Homo sapiens, MDA-MB-231, adult tumor cell line, read-out: Cell killing activity IC50
Protocol: as §1

[4] = tested on: pediatric tumor cell lines; assay: MTT cell killing, pediatric tumor cell lines (summary); format: cell-based; conditions: Table I
Protocol: as §1

[5] = tested on: SH-SY5Y, A673 and 143.98.2 cells; assay: Annexin V-FITC/7AAD flow cytometry (apoptosis); format: cell-based, human; conditions: 5 μM RC16, 24 h, all cell lines
Protocol: SH-SY5Y, A673 and 143.98.2 cells were stained with Annexin V-FITC/7AAD according to the manufacturer’s instructions (Biosciences). Briefly, adherent cells were seeded in 6 multi wells at a concentration of 4.5 × 10^5 cells/well and after 24 h treated with 5 μM RC16 for15 h and 24 h. At the end of the treatment the cells were detached, washed twice with cold PBS and then suspended in annexin binding buffer containing 5 μl of Annexin V-FITC and 5 μl of 7AAD. The samples were gently vortexed and incubated 15 min at 25°C in the dark. Finally, 400 ul binding buffer were added to each tube and the samples were analyzed by BD LSR II (Biosciences). The analysis was performed by FlowJo software version 10.0.5.

## CCCCCCCCCCCCCCC1CN2CCCN3CCCCCC132 (centres unmarked) [RC16, 2-tetradecyl-4,8-diazatricyclo[6.5.0.0^1,^4]tridecane]
[1]; A/J mice, single i.v. dose 20 μg or 40 μg/mouse
  Mean survival time versus controls: significant increase in the mean survival time
[1]; end of experiment (90 days), 20 μg or 40 μg/mouse i.v.
  Treated mice healthy and alive, no macroscopic disease at necropsy: 3 of the 12
[2]; 24 h
  IC50: 100 nM
[2]; 48 h
  IC50: 40 nM
[3]; 24 h
  IC50: 2960 nM
[3]; 48 h
  IC50: 1670 nM
[4]
  Cell killing (qualitative): most active
[5]
  Apoptosis (sum of LR and UR quadrants): approximately 100%
